ChEMBL document CHEMBL2163329, “Tuberculosis: the drug development pipeline at a glance” (Eur J Med Chem, 2012)
≈ marks a conversion by molar mass, not a printed value.

Experiments:
Type in all cases: functional
[1] = system: Mycobacterium tuberculosis; assay: Antimycobacterial activity against quinolone-resistant, multidrug-resistant Mycobacterium tuberculosis
[2] = system: Mycobacterium tuberculosis; assay: Antimycobacterial activity against drug-resistant Mycobacterium tuberculosis
[3] = system: Mycobacterium tuberculosis; assay: Antimycobacterial activity against RIF-resistant Mycobacterium tuberculosis
[4] = system: Mycobacterium tuberculosis; assay: Antimycobacterial activity against INH-resistant Mycobacterium tuberculosis
[5] = system: Mycobacterium tuberculosis; assay: Antimycobacterial activity against EMB-resistant Mycobacterium tuberculosis

Row | Structure (SMILES) | MIC [2] [µg/mL] | further results
1 | COc1c(N2CC3(CC3)[C@](C)(N)C2)c(F)cc2c(=O)c(C(=O)O)cn([C@@H]3C[C@@H]3F)c12 |  | MIC90 [1]: 0.5 µg/mL (≈ 1.19 µM)
2 | C[C@]1(COc2ccc(N3CCC(Oc4ccc(OC(F)(F)F)cc4)CC3)cc2)Cn2cc([N+](=O)[O-])nc2O1 | 0.006 (≈ 0.0112 µM) | 
3 | COc1nc2ccc(Br)cc2cc1[C@@H](c1ccccc1)[C@@](O)(CCN(C)C)c1cccc2ccccc12 [BEDAQUILINE] | 0.003 (≈ 0.0054 µM) | 
4 | O=[N+]([O-])c1cn2c(n1)OC[C@@H](OCc1ccc(OC(F)(F)F)cc1)C2 [PRETOMANID] | 0.015 (≈ 0.0418 µM) | 
5 | CC(C)=CCC/C(C)=C/CNCCNC1C2CC3CC(C2)CC1C3 (stereo not drawn) [SQ109] |  | MIC [3]: 0.7 µM (≈ 0.231 µg/mL); MIC [4]: 1.4 µM (≈ 0.463 µg/mL); MIC [5]: 0.9 µM (≈ 0.298 µg/mL)
6 | CC(=O)NC[C@H]1CN(c2ccc(N3CCSCC3)c(F)c2)C(=O)O1 [SUTEZOLID] | 0.03 (≈ 0.0849 µM) | 
